# Assay results published in the supplement of paper PMC10307832.
# Tests used:
# Test in all cases: relative viability (nuclei count vs DMSO), 5 days (fraction); higher = more cells survive
# AGI-6780 + Pemetrexed = compound: O=C(Nc1cccc(C(F)(F)F)c1)Nc1cc(S(=O)(=O)NC2CC2)ccc1-c1ccsc1 [AGI-6780] + Nc1nc2[nH]cc(CCc3ccc(C(=O)N[C@@H](CCC(=O)O)C(=O)O)cc3)c2c(=O)[nH]1 [Pemetrexed] (partner 0.2 µM)
# Outline: (§1)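 Dosing by pin tool came one day after lung cancer cell lines were seeded in 1536-well plates, using either one drug or a fixed anchor-drug dose plus five library-drug doses (not always all listed) in √10 steps. After 5 days, nuclei were counted on 4× images. Relative viability is treated-well nuclei count divided by vehicle-well nuclei count, and values are medians of duplicate plates.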
# AGI-6780 + OSI-027 = compound: O=C(Nc1cccc(C(F)(F)F)c1)Nc1cc(S(=O)(=O)NC2CC2)ccc1-c1ccsc1 [AGI-6780] + COc1cccc2cc(-c3nc([C@H]4CC[C@H](C(=O)O)CC4)n4ncnc(N)c34)[nH]c12 [OSI-027] (partner 0.5 µM)
# Outline: as §1
# AGI-6780 + Foretinib = compound: O=C(Nc1cccc(C(F)(F)F)c1)Nc1cc(S(=O)(=O)NC2CC2)ccc1-c1ccsc1 [AGI-6780] + COc1cc2c(Oc3ccc(NC(=O)C4(C(=O)Nc5ccc(F)cc5)CC4)cc3F)ccnc2cc1OCCCN1CCOCC1 [Foretinib] (partner 0.25 µM)
# Outline: as §1
# AGI-6780 + AZD7762 = compound: O=C(Nc1cccc(C(F)(F)F)c1)Nc1cc(S(=O)(=O)NC2CC2)ccc1-c1ccsc1 [AGI-6780] + NC(=O)Nc1cc(-c2cccc(F)c2)sc1C(=O)N[C@H]1CCCNC1 [AZD7762] (partner 0.2 µM)
# Outline: as §1
Cell Line,relative viability (AGI-6780 + Pemetrexed; first compound 0.08 µM),relative viability (AGI-6780 + Pemetrexed; first compound 0.253 µM),relative viability (AGI-6780 + Pemetrexed; first compound 0.8 µM),relative viability (AGI-6780 + Pemetrexed; first compound 2.53 µM),relative viability (AGI-6780 + Pemetrexed; first compound 8 µM),relative viability (AGI-6780 + OSI-027; first compound 0.08 µM),relative viability (AGI-6780 + OSI-027; first compound 0.253 µM),relative viability (AGI-6780 + OSI-027; first compound 0.8 µM),relative viability (AGI-6780 + OSI-027; first compound 2.53 µM),relative viability (AGI-6780 + OSI-027; first compound 8 µM),relative viability (AGI-6780 + Foretinib; first compound 0.08 µM),relative viability (AGI-6780 + Foretinib; first compound 0.253 µM),relative viability (AGI-6780 + Foretinib; first compound 0.8 µM),relative viability (AGI-6780 + Foretinib; first compound 2.53 µM),relative viability (AGI-6780 + Foretinib; first compound 8 µM),relative viability (AGI-6780 + AZD7762; first compound 0.08 µM),relative viability (AGI-6780 + AZD7762; first compound 0.253 µM),relative viability (AGI-6780 + AZD7762; first compound 0.8 µM),relative viability (AGI-6780 + AZD7762; first compound 8 µM),relative viability (AGI-6780 + AZD7762; first compound 2.53 µM)
COR-L23,0.213,0.215,0.206,0.207,0.188,0.743,0.77,0.705,0.527,0.784,1.03,0.948,0.883,1.06,0.837,,,,,
LK-2,0.228,0.359,0.28,,0.366,0.172,0.224,0.189,,0.197,1.23,1.15,1.21,,1.53,0.374,0.412,0.63,0.501,
PC-14,0.143,0.147,0.141,0.16,0.134,0.833,0.822,0.814,0.678,0.922,0.902,1.1,1.02,0.941,0.979,0.355,0.33,0.453,0.397,0.455
SW 1573,0.866,0.787,0.921,,0.874,0.685,0.656,0.801,,0.562,0.881,1.01,0.93,0.836,0.903,,,,,
NCI-H2085,0.935,0.963,0.911,1.14,0.906,0.77,0.825,0.805,0.513,0.89,0.995,0.882,1.05,1.02,0.903,1.07,1,0.995,1,1.06
NCI-H441,0.288,0.241,0.236,0.25,0.248,0.78,0.922,0.599,0.54,0.504,1.03,1.16,1.06,0.754,0.844,1.33,1.35,1.43,1.39,1.2
NCI-H1648,0.655,0.884,0.864,0.841,0.779,0.26,0.292,0.258,0.277,0.242,,,,,,0.676,0.846,0.89,0.81,0.769
NCI-H2126,0.743,0.649,0.616,0.676,0.768,0.711,0.88,0.742,0.618,0.815,1.32,1.09,1.08,1.08,1.18,1.03,1.08,0.989,1.08,0.97
LXF-289,0.912,0.763,0.964,1.04,0.919,0.862,0.843,0.844,0.666,0.921,1,1,1.04,0.954,0.934,1.16,1.17,1.11,0.991,1.37
HCC-44,0.657,0.681,0.601,0.631,0.616,0.628,0.719,0.477,0.47,0.594,,,,,,0.916,1.11,1.04,1.04,1.07
EMC-BAC-2,,0.434,0.43,0.55,0.44,0.383,0.384,0.338,0.301,0.427,1.05,1.04,0.961,0.842,1.18,,1.15,1.16,1.02,0.877
NCI-H522,1.23,1.04,0.913,,1.05,0.782,0.724,0.804,0.564,0.751,,,,,,0.821,0.907,0.848,0.78,
NCI-H1792,0.993,0.842,0.79,,0.844,,0.71,0.704,0.663,0.643,,,,,,1.05,0.596,0.769,0.752,
NCI-H661,0.909,0.956,0.967,0.969,0.905,0.722,0.745,0.933,0.661,0.772,1.03,0.986,1.03,0.873,1.05,,,,,
LCLC-103H,0.455,0.421,0.477,0.51,0.473,0.554,0.518,0.45,0.38,0.491,0.883,0.745,0.702,0.652,0.748,0.716,0.812,0.712,0.792,0.647
NCI-H1793,0.838,0.926,0.964,0.671,0.959,0.302,0.27,0.359,0.197,0.293,0.729,0.745,0.771,0.555,0.603,0.747,0.517,0.703,0.409,0.36
HOP-62,0.336,0.303,0.378,0.346,0.385,0.886,0.906,0.884,0.715,1.01,1.08,1.06,1.14,1.16,1.15,0.659,0.592,0.826,0.82,0.846
HCC-827,0.237,0.257,0.264,0.256,0.27,0.68,0.705,0.824,0.673,0.798,1.09,1.09,1.1,0.938,1.03,0.223,0.269,0.356,0.187,0.236
NCI-H2087,0.702,0.637,0.696,0.636,0.754,0.866,0.564,0.608,0.405,0.626,1.04,1.24,1.17,1.17,1.08,1.42,1.43,1.34,1.47,1.64
RERF-LC-KJ,0.497,0.466,0.469,0.497,0.466,0.579,0.719,0.614,0.465,0.454,0.871,0.904,0.88,0.597,0.909,0.853,0.811,1.04,0.952,0.777

Cell Line,relative viability (AGI-6780 + Pemetrexed; first compound 0.08 µM),relative viability (AGI-6780 + Pemetrexed; first compound 0.253 µM),relative viability (AGI-6780 + Pemetrexed; first compound 0.8 µM),relative viability (AGI-6780 + Pemetrexed; first compound 2.53 µM),relative viability (AGI-6780 + Pemetrexed; first compound 8 µM),relative viability (AGI-6780 + OSI-027; first compound 0.08 µM),relative viability (AGI-6780 + OSI-027; first compound 0.253 µM),relative viability (AGI-6780 + OSI-027; first compound 0.8 µM),relative viability (AGI-6780 + OSI-027; first compound 2.53 µM),relative viability (AGI-6780 + OSI-027; first compound 8 µM),relative viability (AGI-6780 + Foretinib; first compound 0.08 µM),relative viability (AGI-6780 + Foretinib; first compound 0.253 µM),relative viability (AGI-6780 + Foretinib; first compound 0.8 µM),relative viability (AGI-6780 + Foretinib; first compound 2.53 µM),relative viability (AGI-6780 + Foretinib; first compound 8 µM),relative viability (AGI-6780 + AZD7762; first compound 0.08 µM),relative viability (AGI-6780 + AZD7762; first compound 0.253 µM),relative viability (AGI-6780 + AZD7762; first compound 0.8 µM),relative viability (AGI-6780 + AZD7762; first compound 8 µM),relative viability (AGI-6780 + AZD7762; first compound 2.53 µM)
NCI-H2342,0.777,0.781,0.835,0.715,0.85,0.63,0.721,0.58,0.57,0.662,1.11,1.11,1.05,0.978,1.12,0.47,0.667,0.612,0.733,0.499
A-427,,0.932,1.01,0.929,0.971,0.477,0.458,0.507,0.384,0.509,0.991,0.951,1.15,0.825,1.19,,0.706,0.806,0.783,0.766
HARA,0.248,0.266,0.199,0.271,0.239,0.573,0.594,0.339,0.197,0.514,0.957,0.864,0.963,0.83,0.91,0.541,0.611,0.223,0.313,0.367
HCC-78,0.957,0.859,0.908,0.85,0.927,,0.37,0.431,0.364,0.355,,0.53,0.676,0.606,0.688,0.978,0.697,0.837,0.681,0.684
ABC-1,,,,,,0.469,0.524,0.688,0.55,0.595,1.13,1.17,1.11,1.07,0.941,0.774,0.967,0.891,1.08,
Calu-6,,,,,,,,,,,0.88,0.871,0.96,0.89,0.885,,,,,
NCI-H2009,1.14,1.1,1.01,1.14,0.957,0.667,0.7,0.575,0.668,0.696,1.23,1.23,1.19,1.24,1.14,,,,,
NCI-H1563,0.712,0.822,0.748,0.655,0.518,0.784,0.752,0.805,0.666,0.728,0.901,0.977,1.02,0.89,0.992,,,,,
EBC-1,,,,,,,,,,,0.104,0.105,0.106,0.11,0.104,,,,,
UMC-11,0.793,0.809,0.816,,0.868,0.488,0.452,0.473,,0.509,1.03,1.03,1.23,,1.19,,,,,
NCI-H727,,,,,,0.639,0.821,0.617,0.494,0.685,1.07,0.982,0.98,0.626,1.02,0.45,0.536,0.65,0.749,0.589
SK-MES-1,0.991,0.929,0.836,0.985,0.929,0.635,0.662,0.561,0.448,0.509,0.896,1.01,0.773,0.709,0.833,,,,,
A549,,,,,,,,,,,1.04,0.956,0.88,0.729,1.07,,,,,
COR-L 105,1.26,0.965,1.17,0.923,1.08,0.783,0.669,0.719,0.582,0.72,1.09,0.922,0.962,1.25,0.981,,,,,
SK-LU-1,0.981,0.93,0.765,0.984,1.11,0.348,0.406,,0.312,0.359,0.873,0.859,,0.737,0.831,,,,,
NCI-H1650,0.4,0.367,0.366,0.418,0.358,0.641,0.597,0.856,0.552,0.638,1.07,1.23,1.06,1.24,1.13,,,,,
NCI-H2228,0.338,0.343,0.384,0.34,0.391,0.617,0.589,0.488,0.367,0.685,1,0.767,0.598,0.709,0.853,,,,,
NCI-H1299,,,,,,,,,,,1.09,1.07,1.07,1.05,1.12,,,,,
NCI-H520,0.803,0.625,0.669,0.586,0.637,0.293,0.3,0.303,0.189,0.28,0.684,0.942,1.07,0.655,0.77,,,,,
NCI-H2023,0.283,0.235,0.242,0.256,0.204,0.434,0.455,0.447,0.301,0.337,0.984,0.823,0.829,0.777,0.825,,,,,
